Source: the METLIN SMRT retention time set (Domingo-Almenara et al. 2019)

Assay: gradient 5% acetonitrile 3 min, to 50% in 2 min, to 85% in 15 min, held 3 min, 100 µL/min
Settings: column: Zorbax Extend-C18 2.1 x 50 mm; eluents: water / acetonitrile, 0.1% formic acid
Summary of the method: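 Each retention time is based on an adduct peak selected computationally and verified by manual inspection. Measurements used HPLC–quadrupole time-of-flight mass spectrometry in positive and negative ionization mode on mixtures of ~100 pure standards. Chromatography ran on a Zorbax Extend-C18 column (2.1 × 50 mm, 1.8 μm) at 100 μL/min with water and acetonitrile, each containing 0.1% formic acid, and dead and dwell volumes of 40 μL and 900 μL.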

RP-LC retention time [s] | Compound
843 | CCc1nc(-c2ccc(C(=O)N3CCN(c4ncccn4)CC3)cc2)cs1
580 | COC(=O)c1sccc1S(=O)(=O)N1CCC(C(N)=O)(N2CCCCC2)CC1
826 | Cc1cc2nn(CC(=O)Nc3c(C)cccc3C)c(=O)n2c(-c2ccc(F)cc2)n1
650 | CCCN1C(=O)Cc2ccccc2C1C(=O)N1CCOCC1 (configuration not stated)
618 | Cc1c(CCO)c(=O)n2n1CCCC2
916 | Cc1c(Cl)cccc1NS(=O)(=O)c1cc2c(s1)CCN(C(=O)C1CCC1)C2
665 | c1ccc(-c2nc3ccccn3c2Nc2ccc3c(c2)OCCO3)cc1
713 | CC1=C(c2ccc(F)cc2)S(=O)(=O)N=C1N1CCCN(C(=O)c2cccnc2)CC1
726 | COc1ccc(N2CCn3c(SCC(=O)Nc4ccccc4C(F)(F)F)nnc32)cc1
765 | CCN1CCCn2cc(S(=O)(=O)Nc3ccc(Cl)cc3)cc2C1=O
831 | Cc1nnc(N2CCCC(C(=O)NC3CCCCCC3)C2)c2nn(-c3ccc(Cl)cc3)c(C)c12 (configuration not stated)
850 | O=C(Nc1cnn(-c2ncc(N3CCCC3)cn2)c1)Nc1ccccc1C(F)(F)F
695 | CC(=O)Nc1ccc2c(c1)N(C(=O)c1cccs1)CCC2
688 | Cc1ccc(C(=O)N2CCN(c3nc(CN4CCC(C)CC4)cs3)CC2)cc1F
1100 | CCCn1cc(C(=O)Nc2ccc3c(c2)OCO3)c(=O)c2ccc(C)nc21
734 | CCN1CCN(c2ccc(-c3nc(-c4cccc(C)c4)no3)cn2)CC1
682 | Cc1oc2cc3oc(=O)c(CCC(=O)N4CCN(c5ccccn5)CC4)c(C)c3cc2c1C
675 | O=C(CSc1ccc(N2CCCC(C(=O)NC3CC3)C2)nn1)Nc1ccc(F)cc1Cl (configuration not stated)
861 | O=C(CCc1ccccc1)Nc1ccc2c(c1)CCCN2C(=O)c1ccco1

RP-LC retention time [s] | Compound
683 | Cc1ccc(C)c(-c2cc3c(=O)n(Cc4nc(-c5ccc6c(c5)OCO6)no4)ncn3n2)c1
820 | O=C(Cc1csc2nc(-c3ccccc3)cn12)N1CCN(c2ccccc2)CC1
757 | Cn1c(=O)c2nc(SCCC(=O)Nc3ccc(Br)cc3)n(C)c2n(C)c1=O
571 | COCCCNC(=O)C1CN(C(=O)c2ccccc2)CC12CCCCC2 (configuration not stated)
789 | Cc1nc(-c2cnccn2)n(CC(=O)Nc2ccc(F)c(Cl)c2)c(=O)c1C
598 | CCc1nc2cc(N3CCC(C(=O)NCc4cccnc4)CC3)cnc2nc1CC
710 | CC1=CC2(C)NC(=O)C(C)C12 (configuration not stated)
861 | CCOC(=O)c1cn(Cc2ccc(C)cc2)c2nc(C)ccc2c1=O
699 | Cc1cc(=O)n(CC(=O)Nc2cc(C)on2)c(N2CCc3ccccc3C2)n1
634 | O=C(c1cccs1)N1CCC(F)(C(=O)NC2CC2)CC1
622 | CC(C)OCCCNC(=O)CCc1c(-c2ccc(F)cc2)nc2ccccn12
816 | CCC(C)NC(=O)CCn1c(=O)c2ccccc2n2c(=O)n(Cc3cccc(F)c3)nc12 (configuration not stated)
819 | CC1CCN(c2cc(-n3cnc(C(=O)NCC4CCCO4)c3)ncn2)CC1 (configuration not stated)
878 | CN(CCc1noc(COc2ccc(F)cc2)n1)C(=O)c1ccc(F)cc1
762 | O=S(=O)(c1cnc[nH]1)N1CCC(c2nc(CCOc3ccc(F)cc3)no2)C1 (configuration not stated)
857 | CCS(=O)(=O)N1CC(=O)N(c2ccc(C)cc2C)C(C)(C(=O)NCc2ccc(F)cc2)C1 (configuration not stated)
945 | Cc1sc2ccn(Cc3ccc(F)cc3)c(=O)c2c1C(=O)NCc1cccs1
794 | COc1ccc(Cl)cc1Nc1c(-c2nc(C)no2)cnc2nc(C)ccc12
